Test results taken from PubChem BioAssay AID248 (DTP/NCI, 2004).
“And” between values parts separate entries of the source, which are not always exact repeats. Equal entries are not always repeated. Toxic doses and inconclusive results are not listed. Cut-off read from the data, not from the text of the source: active = T/C of 150% or more; inactive = T/C below 125%.

Tested on: L1210 leukemia ip in BDF1 mice, survival T/C
Experiment: NCI In Vivo Anticancer Drug Screen. Data for tumor model L1210 Leukemia (intraperitoneal) in B6D2F1 (BDF1) mice
Settings: endpoint: mean survival time, higher = longer survival
Protocol: The antitumor activity of compounds was measured in mice bearing transplantable tumors. Survival or tumor size were measured and the results are expressed as the measurement made in the treated group (T) divided by the measurement made in the vehicle treated control group (C). The tumor model used in this assay is L1210 Leukemia (intraperitoneal) in B6D2F1 (BDF1) mice

[1] = dose: 100.0 mg/kg/injection, schedule: Q01DX001 (ip), vehicle: saline with Tween-80
[2] = dose: 200.0 mg/kg/injection, schedule: Q01DX001 (ip), vehicle: saline with Tween-80
[3] = dose: 400.0 mg/kg/injection, schedule: Q01DX001 (ip), vehicle: saline with Tween-80
[4] = dose: 100.0 mg/kg/injection, schedule: Q01DX009 (ip), vehicle: saline with Tween-80
[5] = dose: 200.0 mg/kg/injection, schedule: Q01DX009 (ip), vehicle: saline with Tween-80
[6] = dose: 400.0 mg/kg/injection, schedule: Q01DX009 (ip), vehicle: saline with Tween-80
[7] = dose: 100.0 mg/kg/injection, schedule: Q01DX001 (ip), vehicle: saline
[8] = dose: 200.0 mg/kg/injection, schedule: Q01DX001 (ip), vehicle: saline
[9] = dose: 400.0 mg/kg/injection, schedule: Q01DX001 (ip), vehicle: saline
[10] = dose: 100.0 mg/kg/injection, schedule: Q01DX009 (ip), vehicle: Klucel (hydroxypropylcellulose) (HPC)
[11] = dose: 200.0 mg/kg/injection, schedule: Q01DX009 (ip), vehicle: Klucel (hydroxypropylcellulose) (HPC)

Measured: T/C

CC(=O)NC(c1ccccc1)C(NC(=O)c1ccccc1)c1ccccc1 (stereo not drawn)
inactive: [1] 92 % of control | [2] 94 % of control | [3] 89 % of control

Nc1ccc2c(=O)[nH][nH]c(=O)c2c1
inactive: [4] 98 % of control | [5] 98 % of control | [6] 95 % of control

CC12CCC(O)CC1=CCC1C2CCC2(C)C1CC1=CC(C#N)C(=O)NC12O (stereo not drawn)
inactive: dose: 100.0 mg/kg/injection, schedule: Q04DX003 (sc), vehicle: Klucel (hydroxypropylcellulose) (HPC) 100 % of control | dose: 200.0 mg/kg/injection, schedule: Q04DX003 (sc), vehicle: Klucel (hydroxypropylcellulose) (HPC) 103 % of control | dose: 400.0 mg/kg/injection, schedule: Q04DX003 (sc), vehicle: Klucel (hydroxypropylcellulose) (HPC) 99 % of control

CC(=O)Nc1ccc(NC(=O)c2ccc([As](O)O)cc2)cc1
inactive: dose: 25.0 mg/kg/injection, schedule: Q01DX001 (ip), vehicle: carboxymethylcellulose (CMC) 100 % of control | dose: 50.0 mg/kg/injection, schedule: Q01DX001 (ip), vehicle: carboxymethylcellulose (CMC) 102 % of control | dose: 100.0 mg/kg/injection, schedule: Q01DX001 (ip), vehicle: carboxymethylcellulose (CMC) 107 % of control | dose: 200.0 mg/kg/injection, schedule: Q01DX001 (ip), vehicle: carboxymethylcellulose (CMC) 113 % of control

COc1ccc(C(=O)NC2CCC2)cc1
inactive: dose: 25.0 mg/kg/injection, schedule: Q01DX009 (ip), vehicle: saline 100 % of control | dose: 50.0 mg/kg/injection, schedule: Q01DX009 (ip), vehicle: saline 108 % of control | dose: 100.0 mg/kg/injection, schedule: Q01DX009 (ip), vehicle: saline 100 % of control

CC(C)P(=O)(CC(=O)O)c1ccccc1 (stereo not drawn)
inactive: dose: 100.0 mg/kg/injection, schedule: Q04DX002 (ip), vehicle: saline with Tween-80 100 % of control | dose: 400.0 mg/kg/injection, schedule: Q04DX002 (ip), vehicle: saline with Tween-80 97 % of control

OC1CCOC1 (stereo not drawn)
inactive: [4] 98 % of control | [5] 97 % of control | [6] 98 % of control

CCOC(=S)c1ccc(S(=O)(=O)Nc2ccccc2)cc1
inactive: [1] 100 % of control | [2] 97 % of control | [3] 95 % of control

CCN=C(c1ccc(NC(=O)c2ccc(C(=O)Nc3ccc(C(=NCC)N(CC)C(=O)NCCCCl)cc3)cc2)cc1)N(CC)C(=O)NCCCCl
inactive: dose: 0.5 mg/kg/injection, schedule: Q01DX015 (ip), vehicle: methylcellulose (MC) 100 % of control | dose: 1.0 mg/kg/injection, schedule: Q01DX015 (ip), vehicle: methylcellulose (MC) 102 % of control | dose: 2.0 mg/kg/injection, schedule: Q01DX015 (ip), vehicle: methylcellulose (MC) 111 % of control

CNS(=O)(=O)c1ccccc1C(=O)c1ccccc1
inactive: [7] 100 % of control | [8] 97 % of control | [9] 103 % of control

CC(CC(C#CC(CC(C)CC(C)(C)C)N(C)C)N(C)C)CC(C)(C)C (stereo not drawn)
inactive: [10] 96 % of control | dose: 100.0 mg/kg/injection, schedule: Q04DX002 (ip), vehicle: Klucel (hydroxypropylcellulose) (HPC) 111 % of control | [11] 93 % of control | dose: 200.0 mg/kg/injection, schedule: Q04DX002 (ip), vehicle: Klucel (hydroxypropylcellulose) (HPC) 93 % of control | dose: 400.0 mg/kg/injection, schedule: Q04DX002 (ip), vehicle: Klucel (hydroxypropylcellulose) (HPC) 90 % of control

O=C(O)c1cc2ccc3ccccc3c2s1
inactive: [7] 87 % of control | [8] 88 % of control

CCNC(Cc1ccccc1)c1ccc(OC)cc1 (stereo not drawn)
inactive: dose: 25.0 mg/kg/injection, schedule: Q01DX009 (ip), vehicle: Klucel (hydroxypropylcellulose) (HPC) 97 % of control | dose: 25.0 mg/kg/injection, schedule: Q04DX003 (ip), vehicle: Klucel (hydroxypropylcellulose) (HPC) 110 % of control | dose: 50.0 mg/kg/injection, schedule: Q01DX009 (ip), vehicle: Klucel (hydroxypropylcellulose) (HPC) 94 % of control | dose: 50.0 mg/kg/injection, schedule: Q04DX003 (ip), vehicle: Klucel (hydroxypropylcellulose) (HPC) 102 % of control | dose: 100.0 mg/kg/injection, schedule: Q04DX003 (ip), vehicle: Klucel (hydroxypropylcellulose) (HPC) 98 % of control and 102 % of control

O=C(CCl)Nc1ccccc1S(=O)(=O)F
inactive: dose: 18.75 mg/kg/injection, schedule: Q01DX009 (ip), vehicle: carboxymethylcellulose (CMC) 91 % of control | dose: 37.5 mg/kg/injection, schedule: Q01DX009 (ip), vehicle: carboxymethylcellulose (CMC) 92 % of control | dose: 75.0 mg/kg/injection, schedule: Q01DX001 (ip), vehicle: carboxymethylcellulose (CMC) 98 % of control | dose: 75.0 mg/kg/injection, schedule: Q04DX003 (ip), vehicle: carboxymethylcellulose (CMC) 94 % of control | dose: 150.0 mg/kg/injection, schedule: Q01DX001 (ip), vehicle: carboxymethylcellulose (CMC) 93 % of control | dose: 150.0 mg/kg/injection, schedule: Q04DX003 (ip), vehicle: carboxymethylcellulose (CMC) 88 % of control | dose: 300.0 mg/kg/injection, schedule: Q01DX001 (ip), vehicle: carboxymethylcellulose (CMC) 97 % of control

O=C(c1ccccc1)N1CCN(C(=O)c2ccccc2)C1
inactive: [10] 91 % of control | [11] 98 % of control | dose: 400.0 mg/kg/injection, schedule: Q01DX009 (ip), vehicle: Klucel (hydroxypropylcellulose) (HPC) 104 % of control

O=C(Nc1ccc(S(=O)(=O)NC2CCCCC2)cc1)OC1CCCCCCC1
inactive: [7] 89 % of control | [8] 94 % of control | [9] 96 % of control

O=Cc1cc2c(cc1Cl)OCO2
inactive: dose: 100.0 mg/kg/injection, schedule: Q04DX003 (ip), vehicle: saline with Tween-80 92 % of control | dose: 200.0 mg/kg/injection, schedule: Q04DX003 (ip), vehicle: saline with Tween-80 86 % of control | dose: 400.0 mg/kg/injection, schedule: Q04DX003 (ip), vehicle: saline with Tween-80 97 % of control
